Source: ChEMBL document CHEMBL1201862, “PubChem BioAssay data set” (2004)
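Method: 48-hour compound exposure of cells in 96-well plates, five concentrations, linear interpolation of endpoints. GI50: concentration for 50% inhibition of growth.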 Activity calls are given as the source filed them. Cut-off read from the data, not from the text of the source: active = GI50 up to about 1.1 µM and inactive = higher.

What was measured:
Test in all cases: growth of human tumour cells (NCI), 48 h
NCI/ADR-RES = tested on: NCI/ADR-RES
TK-10 = tested on: TK-10
SK-OV-3 = tested on: SK-OV-3
SF-295 = tested on: SF-295
PC-3 = tested on: PC-3
NCI-H23 = tested on: NCI-H23
CAKI-1 = tested on: CAKI-1
SR = tested on: SR
MCF7 = tested on: MCF7
SK-MEL-2 = tested on: SK-MEL-2
CCRF-CEM = tested on: CCRF-CEM
UO-31 = tested on: UO-31
MDA-MB-435 = tested on: MDA-MB-435
RPMI-8226 = tested on: RPMI-8226
DU-145 = tested on: DU-145
HCC 2998 = tested on: HCC 2998
LOX IMVI = tested on: LOX IMVI
SNB-75 = tested on: SNB-75
SNB-19 = tested on: SNB-19
A498 = tested on: A498
Hs-578T = tested on: Hs-578T
COLO 205 = tested on: COLO 205
ACHN = tested on: ACHN
OVCAR-4 = tested on: OVCAR-4
OVCAR-8 = tested on: OVCAR-8
HL-60 = tested on: HL-60
MOLT-4 = tested on: MOLT-4
HOP-92 = tested on: HOP-92
HCT-116 = tested on: HCT-116
K562 = tested on: K562
A549 = tested on: A549
HT-29 = tested on: HT-29
786-0 = tested on: 786-0
MDA-MB-231 = tested on: MDA-MB-231
T47D = tested on: T47D
SF-539 = tested on: SF-539
BT-549 = tested on: BT-549
NCI-H226 = tested on: NCI-H226
KM12 = tested on: KM12
SN12C = tested on: SN12C
RXF 393 = tested on: RXF 393
M14 = tested on: M14
SK-MEL-28 = tested on: SK-MEL-28
SW-620 = tested on: SW-620
NCI-H522 = tested on: NCI-H522
OVCAR-5 = tested on: OVCAR-5
IGROV-1 = tested on: IGROV-1
SF-268 = tested on: SF-268
HOP-62 = tested on: HOP-62
Malme-3M = tested on: Malme-3M
HCT-15 = tested on: HCT-15
OVCAR-3 = tested on: OVCAR-3
EKVX = tested on: EKVX
NCI-H460 = tested on: NCI-H460
SK-MEL-5 = tested on: SK-MEL-5
UACC-62 = tested on: UACC-62
MDA-N = tested on: MDA-N
UACC-257 = tested on: UACC-257
U-251 = tested on: U-251

For `COc1ccc(N2C(=O)C(C)SC2c2cc3cc(Br)ccc3nc2Cl)cc1` (stereo not given), the GI50 (NCI/ADR-RES) was 24.3 µM (inactive), the GI50 (TK-10) was 38.6 µM (inactive) and the GI50 (SK-OV-3) was 59.8 µM (inactive). The GI50 (SF-295) was 33.1 µM (inactive), the GI50 (PC-3) was 25.4 µM (inactive) and the GI50 (NCI-H23) was 33.6 µM (inactive). The GI50 (CAKI-1) was 35.1 µM (inactive), the GI50 (SR) was 18.1 µM (inactive) and the GI50 (MCF7) was 33.2 µM (inactive). The GI50 (SK-MEL-2) was 19.7 µM (inactive), the GI50 (CCRF-CEM) was 26.6 µM (inactive) and the GI50 (UO-31) was 33.6 µM (inactive). For the same compound, the GI50 (MDA-MB-435) was 19.7 µM (inactive), the GI50 (RPMI-8226) was 32.7 µM (inactive) and the GI50 (DU-145) was 57.3 µM (inactive). For the same compound, the GI50 (HCC 2998) was 33.3 µM (inactive), the GI50 (LOX IMVI) was 33 µM (inactive) and the GI50 (SNB-75) was 91 µM (inactive). For the same compound, the GI50 (SNB-19) was 25.6 µM (inactive), the GI50 (A498) was 46.8 µM (inactive) and the GI50 (Hs-578T) was 38.5 µM (inactive). For the same compound, the GI50 (COLO 205) was 35.5 µM (inactive), the GI50 (ACHN) was 48.8 µM (inactive) and the GI50 (OVCAR-4) was 27.8 µM (inactive). The GI50 (OVCAR-8) was 37.5 µM (inactive), the GI50 (HL-60) was 24.8 µM (inactive) and the GI50 (MOLT-4) was 20.9 µM (inactive). For the same compound, the GI50 (HOP-92) was 22.9 µM (inactive), the GI50 (HCT-116) was 37.8 µM (inactive) and the GI50 (K562) was 31.3 µM (inactive). For the same compound, the GI50 (A549) was 12.4 µM (inactive), the GI50 (HT-29) was 32.4 µM (inactive) and the GI50 (786-0) was 45.8 µM (inactive). The GI50 (MDA-MB-231) was 31.6 µM (inactive), the GI50 (T47D) was 34.3 µM (inactive) and the GI50 (SF-539) was 27.4 µM (inactive). For the same compound, the GI50 (BT-549) was 24.9 µM (inactive), the GI50 (NCI-H226) was 55.3 µM (inactive) and the GI50 (KM12) was 30.8 µM (inactive). The GI50 (SN12C) was 35.2 µM (inactive), the GI50 (RXF 393) was 28.8 µM (inactive) and the GI50 (M14) was 44.4 µM (inactive). For the same compound, the GI50 (SK-MEL-28) was 38.1 µM (inactive), the GI50 (SW-620) was 30.4 µM (inactive) and the GI50 (NCI-H522) was 21.3 µM (inactive). For the same compound, the GI50 (OVCAR-5) was 57.9 µM (inactive), the GI50 (IGROV-1) was 7.93 µM (inactive) and the GI50 (SF-268) was 38.3 µM (inactive). The GI50 (HOP-62) was 36.2 µM (inactive), the GI50 (Malme-3M) was 82.4 µM (inactive) and the GI50 (HCT-15) was 32.9 µM. The GI50 (OVCAR-3) was 34.9 µM (inactive), the GI50 (EKVX) was 21.6 µM (inactive) and the GI50 (NCI-H460) was 30.9 µM (inactive). The GI50 (SK-MEL-5) was 36.1 µM (inactive), the GI50 (UACC-62) was 26.2 µM (inactive) and the GI50 (MDA-N) was 28.5 µM (inactive). The GI50 (UACC-257) was 30.7 µM (inactive).
With `O=C(/C=C1\Sc2ccccc2N=C1CC(=O)c1ccccc1)c1ccccc1` the GI50 (NCI/ADR-RES) was 4.02 µM (inactive), the GI50 (TK-10) was 5.73 µM (inactive) and the GI50 (SK-OV-3) was 9.82 µM (inactive). The GI50 (SF-295) was 3.64 µM (inactive), the GI50 (PC-3) was 8.22 µM (inactive) and the GI50 (NCI-H23) was 35.6 µM (inactive). For the same compound, the GI50 (CAKI-1) was 4.12 µM (inactive), the GI50 (SR) was 1.4 µM (inactive) and the GI50 (MCF7) was 4.19 µM (inactive). For the same compound, the GI50 (SK-MEL-2) was 17.3 µM (inactive), the GI50 (CCRF-CEM) was 2.36 µM (inactive) and the GI50 (UO-31) was 8.49 µM (inactive). For the same compound, the GI50 (MDA-MB-435) was 6.52 µM (inactive), the GI50 (RPMI-8226) was 4.65 µM (inactive) and the GI50 (DU-145) was 6.65 µM (inactive). For the same compound, the GI50 (HCC 2998) was 10.1 µM (inactive), the GI50 (LOX IMVI) was 3 µM (inactive) and the GI50 (SNB-19) was 69.7 µM (inactive). For the same compound, the GI50 (A498) was 31.8 µM (inactive), the GI50 (Hs-578T) was 44.7 µM (inactive) and the GI50 (COLO 205) was 10.3 µM (inactive). For the same compound, the GI50 (ACHN) was 4.39 µM (inactive), the GI50 (OVCAR-4) was 4.99 µM (inactive) and the GI50 (OVCAR-8) was 3.67 µM (inactive). The GI50 (HL-60) was 4.89 µM (inactive), the GI50 (MOLT-4) was 1.79 µM (inactive) and the GI50 (HOP-92) was 3.35 µM (inactive). The GI50 (HCT-116) was 4.9 µM (inactive), the GI50 (K562) was 3.79 µM (inactive) and the GI50 (A549) was 5.33 µM (inactive). The GI50 (U-251) was 2.01 µM (inactive), the GI50 (HT-29) was 8.49 µM (inactive) and the GI50 (786-0) was 3.51 µM (inactive). For the same compound, the GI50 (MDA-MB-231) was 6 µM (inactive), the GI50 (T47D) was 6.98 µM (inactive) and the GI50 (SF-539) was 13.2 µM (inactive). The GI50 (BT-549) was 8.13 µM (inactive), the GI50 (NCI-H226) was 7.1 µM (inactive) and the GI50 (KM12) was 4.76 µM (inactive). The GI50 (SN12C) was 3.88 µM (inactive), the GI50 (RXF 393) was 26.5 µM (inactive) and the GI50 (M14) was 6.14 µM (inactive). The GI50 (SK-MEL-28) was 8.89 µM (inactive), the GI50 (SW-620) was 3.97 µM (inactive) and the GI50 (NCI-H522) was 15.8 µM (inactive). For the same compound, the GI50 (OVCAR-5) was 12.8 µM (inactive), the GI50 (IGROV-1) was 3.61 µM (inactive) and the GI50 (SF-268) was 6.4 µM (inactive). For the same compound, the GI50 (HOP-62) was 2.32 µM (inactive), the GI50 (Malme-3M) was 3.25 µM (inactive) and the GI50 (HCT-15) was 2.65 µM. For the same compound, the GI50 (OVCAR-3) was 10.7 µM (inactive), the GI50 (EKVX) was 6.17 µM (inactive) and the GI50 (NCI-H460) was 3.89 µM (inactive). The GI50 (SK-MEL-5) was 2.61 µM (inactive), the GI50 (MDA-N) was 8.22 µM (inactive) and the GI50 (UACC-257) was 97.3 µM (inactive).
